The values below come from patent US20240246946A1, “MODULATORS OF TREX1” (Constellation Pharmaceuticals, Inc., priority 2021, published 2024).

Bounds are passed on as bounds.

In assay [1] the target is T1, human TREX2 (residues M44-A279) (Homo sapiens, UniProt Q9BQ50).
T1 construct: human TREX2 (residues M44-A279, expressed in E. coli); made in house; host or cells: E. coli
T1 sequence (Q9BQ50 44-279 isoform Q9BQ50-1): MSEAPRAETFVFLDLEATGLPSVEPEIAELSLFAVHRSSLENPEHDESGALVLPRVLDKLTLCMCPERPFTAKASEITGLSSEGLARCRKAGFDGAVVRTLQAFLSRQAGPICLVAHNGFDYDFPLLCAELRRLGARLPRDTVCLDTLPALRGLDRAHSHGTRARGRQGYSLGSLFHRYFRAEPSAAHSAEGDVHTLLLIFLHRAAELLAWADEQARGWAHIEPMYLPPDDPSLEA
In words: hTREX2 Biochemical Assay (fluorescence, dsDNA substrate degradation). The note with it: biochemical selectivity for hTREX1 vs hTREX2. The essentials: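 N-His-Tev E. coli enzyme (50 pM) pre-incubated with compound 4 h at 25 °C, then 60 nM TEX615/quencher dsDNA added; 18 h at 25 °C, pH 7.4 Tris buffer with 5 mM MgCl2, 1.0% DMSO. EDTA-quenched; fluorescence 570 ex/615 em from liberated fluorophore, 10-point dose-response.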

For the next assay, the target named is T2, hTREX1 (Homo sapiens, UniProt Q9NSU2).
T2 construct: host or cells: HCT116 dual cells
T2 sequence (Q9NSU2 1-314): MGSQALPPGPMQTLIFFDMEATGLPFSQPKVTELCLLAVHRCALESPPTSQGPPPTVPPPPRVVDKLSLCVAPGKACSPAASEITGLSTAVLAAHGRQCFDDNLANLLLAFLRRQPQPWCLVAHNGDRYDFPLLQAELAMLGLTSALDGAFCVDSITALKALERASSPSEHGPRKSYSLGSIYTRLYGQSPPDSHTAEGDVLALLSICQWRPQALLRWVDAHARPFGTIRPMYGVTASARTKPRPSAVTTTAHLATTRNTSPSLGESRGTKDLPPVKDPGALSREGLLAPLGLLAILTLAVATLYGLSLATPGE
Nature of the assay: hTREX1 HCT116 Cell Assay (HCT116 dual cells, Lucia luciferase reporter of Type I interferon induction). In kind it is cell-based. The note with it: TREX1i 4 h before pBR322/BstNI transfection, read after 48 h. The source says: HCT116 dual cells (Invivogen, San Diego, CA, USA) are derived from the human HCT116 colorectal carcinoma cell line. Cells have been selected for the stable integration of SEAP and Luciferase reporter genes, which expression is under the control of 5 tandem response elements for NF-KB/AP1 and STAT1/STAT2, respectively. The cell line was used to monitor Type I interferon induction and subsequent signaling by measuring the activity of the Lucia luciferase secreted in the culture medium.
HCT116 cells were plated in 96-well plate(s) at 40,000 cells/well in 100 uL DMEM supplemented with 10% FBS and 25 mM Hepes (pH 7.2-7.5). After overnight settling, cells were treated with TREX1i for 4 h (maximum DMSO fraction was 0.1%) before 1 ug/mL pBR322/BstNI restriction digest (New England Biolabs, Ipswich, MA, USA) was transfected with Lipofectamine LTX (ThermoFisher, Grand Island, NY, USA), according to product manual recommendations. Briefly, Lipofectamine LTX (0.35 uL/well) was diluted in OptiMEM (5 uL/well). pBR322/BstNI (100 ng/well) was diluted in OptiMEM (5 uL/well) before Plus reagent (0.1 uL/100 ng DNA) was added. After 5 min incubation at room temperature, the DNA mixture was mixed dropwise with the diluted Lipofectamine LTX. After an additional 10 min incubation, the transfection mix (10 uL/well) was added to the cells. Cells were maintained at 37 C for 48 h before monitoring the Lucia Luciferase activity from the cell culture medium.
For orientation: Reporter assays use an easily measured gene product as a stand-in for the process of interest.

For a further assay, the target named is T3, full length human TREX1 (Homo sapiens, UniProt Q9NSU2).
T3 construct: N-terminally His-Tev tagged full length human TREX1; made in house; host or cells: E. coli
T3 sequence (Q9NSU2 1-314): T2 sequence (Q9NSU2 1-314)
In words: hTREX1 Biochemical Assay (fluorescence, dsDNA substrate degradation). The note with it: biochemical, read-out: hTREX1 IC50. In a few lines: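 Cleavage of 60 nM TEX615/quencher-labelled dsDNA in pH 7.4 Tris buffer with 5 mM MgCl2, 1.0% DMSO, run 18 hours at 25° C, EDTA-quenched; fluorescence read-out.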

For the next assay, the target named is T4, full length mouse TREX1 (Mus musculus, UniProt Q91XB0).
T4 construct: N-terminally His-Tev tagged full length mouse TREX1; made in house; host or cells: E. coli
T4 sequence (Q91XB0 1-314): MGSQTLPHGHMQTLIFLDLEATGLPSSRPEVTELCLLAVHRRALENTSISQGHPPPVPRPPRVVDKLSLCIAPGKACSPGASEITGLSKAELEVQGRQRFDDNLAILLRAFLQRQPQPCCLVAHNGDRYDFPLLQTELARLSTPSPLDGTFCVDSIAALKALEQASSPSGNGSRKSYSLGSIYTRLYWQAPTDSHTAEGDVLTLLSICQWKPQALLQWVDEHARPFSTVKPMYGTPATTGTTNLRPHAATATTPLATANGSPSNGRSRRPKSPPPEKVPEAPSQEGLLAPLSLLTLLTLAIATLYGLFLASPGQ
In words: mTREX1 Biochemical Assay (fluorescence, dsDNA substrate degradation). The note with it: biochemical, read-out: mTREX1 IC50. In a few lines: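 Reaction run 18 h at 25° C. with 60 nM TEX615/quencher-labelled dsDNA and 6 pM mouse TREX1 in Tris buffer (pH 7.4, 5 mM MgCl2, 1.0% DMSO), enzyme having sat 4 h with compound across 10 concentrations. EDTA quench; substrate degradation measured as fluorescence increase.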

The IC50 is the midpoint of a concentration-inhibition curve.

With `CC(c1nc(C(=O)Nc2cnoc2)c(O)c(=O)n1C)C(c1ccccc1Cl)n1cccn1` (single isomer, unassigned) [Example 45 D1E1], in assay [1], the “hTREX1 vs hTREX2 selectivity” value is “B (B = 25 to 50-fold selective for hTREX1)”. The IC50 on hTREX1 is > 100 nM; on full length human TREX1, 1 to 10 nM; on full length mouse TREX1, > 10 nM.
For `CC(c1nc(C(=O)Nc2cnoc2)c(O)c(=O)n1C)C(c1ccccc1)c1cccnc1C#N` (single isomer, unassigned) [Example 155 D2E1], in that order: “C (C = >50 fold selective for hTREX1)”, 10 to 100 nM, < 1 nM and > 10 nM.
On to `Cc1cnc(C)c(C(c2cc(F)ccc2C#N)C(C)c2nc(C(=O)Nc3cnoc3)c(O)c(=O)n2C)n1` (single isomer, unassigned) [Example 119 D2E2], for which the “hTREX1 vs hTREX2 selectivity” value in assay [1] is recorded as “A (A = <25 fold selective for hTREX1)”. The IC50 against hTREX1 was > 100 nM; at full length human TREX1, > 10 nM; on full length mouse TREX1, > 10 nM.
Regarding `Cc1cc(C(c2ccccc2C#N)C(C)c2nc(C(=O)Nc3cnoc3)c(O)c(=O)n2C)n(C)n1` (single isomer, unassigned) [Example 63 D1E1], the “hTREX1 vs hTREX2 selectivity” value in assay [1] is given as “C (C = >50 fold selective for hTREX1)”. For the same molecule, the IC50 against hTREX1 is < 10 nM; at full length human TREX1, < 1 nM; on full length mouse TREX1, 1 to 10 nM.
Taken in the same sequence, the figures for `CC(c1nc(C(=O)Nc2cnoc2)c(O)c(=O)n1C)C(c1cnn(C)c1)c1ccc(C(F)(F)F)cc1C#N` (single isomer, unassigned) [Example 30 D1E1] were “C (C = >50 fold selective for hTREX1)”, < 10 nM, < 1 nM and < 1 nM.
For `Cc1cnc(C)c(C(c2cc(F)ccc2C#N)C(C)c2nc(C(=O)Nc3cnoc3)c(O)c(=O)n2C)n1` (single isomer, unassigned) [Example 119 D1E2], in that order: “B (B = 25 to 50-fold selective for hTREX1)”, > 100 nM, > 10 nM and > 10 nM.
For `Cc1cnn(C(c2cc(F)ccc2Cl)C(C)c2nc(C(=O)Nc3cnoc3)c(O)c(=O)n2C)c1` (single isomer, unassigned) [Example 144 D1E2], in that order: “A (A = <25 fold selective for hTREX1)”, > 100 nM, 1 to 10 nM and > 10 nM.
`Cc1nn(C)cc1C(c1cc(F)ccc1C#N)C(c1nc(C(=O)Nc2cnoc2)c(O)c(=O)n1C)C(F)(F)F` (single isomer, unassigned) [Example 42 D1E2]: in assay [1], the “hTREX1 vs hTREX2 selectivity” value is listed as “C (C = >50 fold selective for hTREX1)”. Besides, the 50% inhibitory concentration (IC50) on hTREX1 is 10 to 100 nM; on full length human TREX1 it was < 1 nM; at full length mouse TREX1 it was 1 to 10 nM.
As for `CC(c1nc(C(=O)Nc2cnoc2)c(O)c(=O)n1C)C(c1cnn(C(F)(F)F)c1)c1ccccc1C#N` (single isomer, unassigned) [Example 151 D2E1], in assay [1], the “hTREX1 vs hTREX2 selectivity” value is on record as “B (B = 25 to 50-fold selective for hTREX1)”. Further, the IC50 at hTREX1 is > 100 nM; at full length human TREX1, 1 to 10 nM; on full length mouse TREX1, > 10 nM.
In the case of `Cc1cc(C)n(C(c2ccccc2Cl)C(C)c2nc(C(=O)Nc3cnoc3)c(O)c(=O)n2C)n1` (single isomer, unassigned) [Example 136 D1E2], in assay [1], the “hTREX1 vs hTREX2 selectivity” value was “B (B = 25 to 50-fold selective for hTREX1)”. In addition, the results for the 50% inhibitory concentration (IC50) on hTREX1, at full length human TREX1 and at full length mouse TREX1 were 10 to 100 nM, < 1 nM and > 10 nM, respectively.
For `CC(c1nc(C(=O)Nc2cnoc2)c(O)c(=O)n1C)C(c1cnn(C)c1)c1cc(F)c(F)cc1Cl` (single isomer, unassigned) [Example 28 D1E1], the IC50 was 10 to 100 nM against hTREX1, < 1 nM on full length human TREX1 and 1 to 10 nM at full length mouse TREX1.
For `Cc1nn(C)c(C)c1C(c1ccccc1C#N)C(C)c1nc(C(=O)Nc2cnoc2)c(O)c(=O)n1C` (single isomer, unassigned) [Example 78 D2E1], in that order: 10 to 100 nM, 1 to 10 nM and > 10 nM.
Taken in the same sequence, the figures for `CC(c1nc(C(=O)Nc2cnoc2)c(O)c(=O)n1C)C(c1cnn(C(F)F)c1)c1ccccc1C#N` (single isomer, unassigned) [Example 38 D2E2] were > 100 nM, 1 to 10 nM and > 10 nM.
With `CCn1ncc(C(c2ccc(F)cc2C#N)C(C)c2nc(C(=O)Nc3cnoc3)c(O)c(=O)n2C)c1C` (single isomer, unassigned) [Example 65 D1E1], the half-inhibitory concentration (IC50) is < 10 nM against hTREX1, < 1 nM on full length human TREX1 and < 1 nM at full length mouse TREX1.
As for `CC(c1nc(C(=O)Nc2cnoc2)c(O)c(=O)n1C)C(c1cnn(C)c1)c1ccncc1C#N` (single isomer, unassigned) [Example 8 D2E2], the figures for the IC50 against hTREX1, at full length human TREX1 and on full length mouse TREX1 were > 100 nM, 1 to 10 nM and > 10 nM, respectively.
As to `COCCn1cc(C(c2cc(F)ccc2C#N)C(C)c2nc(C(=O)Nc3cnoc3)c(O)c(=O)n2C)cn1` (single isomer, unassigned) [Example 18 D1E2], the IC50 was > 100 nM against hTREX1, < 1 nM at full length human TREX1 and 1 to 10 nM on full length mouse TREX1.
As for `CC(c1nc(C(=O)Nc2cnoc2)c(O)c(=O)n1C)C(c1ccccc1C#N)c1c(C#N)cnn1C` (single isomer, unassigned) [Example 52 D2E1], the 50% inhibitory concentration (IC50) at hTREX1 was > 100 nM; at full length human TREX1, > 10 nM; at full length mouse TREX1, > 10 nM.
For `CC(c1nc(C(=O)Nc2cnoc2)c(O)c(=O)n1C)C(c1ncn(C)n1)c1ccccc1C#N` (single isomer, unassigned) [Example 51 D1E2], the concentration for half-maximal inhibition (IC50) is 10 to 100 nM at hTREX1, 1 to 10 nM on full length human TREX1 and > 10 nM at full length mouse TREX1.
For `CC(c1nc(C(=O)Nc2cnoc2)c(O)c(=O)n1C)C(c1cnn(CCN2CCN(C)CC2)c1)c1ccccc1C#N` (single isomer, unassigned) [Example 32 D1E1], in that order: > 100 nM, < 1 nM and 1 to 10 nM.
Turning to `CC(c1nc(C(=O)Nc2cnoc2)c(O)c(=O)n1C)C(c1cocn1)c1ccccc1C#N` (single isomer, unassigned) [Example 50 D1E1], the concentration for half-maximal inhibition (IC50) against hTREX1 was > 100 nM; on full length human TREX1, 1 to 10 nM; on full length mouse TREX1, > 10 nM.
